According to patent US20050277586A1, “Peptide chemically modified with polyethylene glycol” (priority 2002, published 2005):

Key:
[1] = target: phosphatidyl serine (binding of human Factor VIII); experiment: Affinity for phosphatidyl serine (EIA, inhibition of human Factor VIII binding); details: in the presence of 5% BSA, human Factor VIII 1 μg/mL
Method: The specific affinity of the peptide for phosphatidyl serine was evaluated by measuring activity of the peptide for inhibiting the binding of the human Factor VIII to phosphatidyl serine by using human Factor VIII which is known to bind to phosphatidyl serine but not to phosphatidyl choline in the presence of serum albumin. To be more specific, 100 μL of ethanol solution containing 10 μg/mL of phospholipids at a phosphatidyl serine (manufactured by SIGMA): phosphatidyl choline (manufactured by SIGMA) ratio of 3:7 was added to the wells of a 96 well plate (Immulon I, manufactured by Dynatech), and exsiccated by using a centrifugal evaporator (EC-95C, manufactured by Sakuma Seisakusho) at 40° C. for 40 minutes. 200 μL each of TBS (10 mM Tris-HCl (pH 7.4) containing 1% bovine serum albumin (BSA Fraction V, hereinafter referred to as BSA, manufactured by Seikagaku Corporation) and 0.9% (W/V) NaCl solution were added to each well, and the wells were blocked by allowing the plate to stand at 37° C. for 2.5 hours. After washing the plate with water, 100 μL of TBS solution supplemented with 5% BSA mixed with human Factor VIII (manufactured by American Diagnostica) at a final concentration 1 μg/mL and the peptide of predetermined dose prepared in Example 1 was added to each well, and the reaction was allowed to take place at 4° C. for 24 hours.
After the completion of the reaction, the human Factor VIII that became bound to the phosphatidyl serine was measured by enzyme immunoassay (EIA) in accordance with the general procedure described in a book (“Enzyme Immunoassay (3rd ed.)”, Eiji Ishikawa et al., Igaku-Shoin, 1987). To be more specific, the measurement was conducted by using anti-human Factor VIII mouse monoclonal antibody (ESH8, manufactured by American Diagnostica) for the primary antibody, horseradish peroxidase-labeled anti-mouse IgG antibody (P0260, manufactured by Daco) for the secondary antibody, and tetramethylbenzidine for the chromogenic substrate, and measuring the absorption at a wavelength of 450 nm by using a reference wavelength of 630 nm on a spectrophotometer (NJ-2100, manufactured by Intermed).
Intensity of the affinity of the peptide for the phosphatidyl serine was evaluated by using the value obtained by subtracting the absorption of the well having no human Factor VIII added thereto from the absorption of the well having only the human Factor VIII added thereto as the control value (100%), and designating the peptide concentration at which the value 0.5 was obtained when the value obtained by subtracting the absorption of the well having only the peptide added thereto from the absorption of the well having a mixture of the human Factor VIII and the peptide added thereto were divided by the control value as the IC50 value, and evaluating the intensity to be ++ when the IC50 value was up to 1 μM, and + when the intensity was more than 1 μM but not more than 10 μM. It is to be noted that the specific affinity was evaluated to be none when the intensity was 10 μM or more.

[2] = system: Vero cell, T24 cell, A549 cell; experiment: Nucleic acid-introducing ability, luciferase-expressing plasmid (procedure of Example 9); format: cell-based
Description: A cell line established from monkey kidney (Vero cell) and a human bladder cancer cell (T24 cell) purchased from American Type Culture Collection (ATCC) and human lung cancer cell (A549 cell) purchased from Dainippon Pharmaceutical were inoculated on a 24 well culture plate (manufactured by NALGEN NUNC) at 1×10^5 cells/well. Vero cell and A549 cell were cultivated in DMEM (manufactured by Life Technologies Oriental) supplemented with 10% fetal bovine serum (hereinafter referred to as FBS, manufactured by NICHIREI), and T24 cell was cultivated in McCoy's 5a (manufactured by Life Technologies Oriental) supplemented with 10% FBS in 5% CO2 atmosphere at 37° C. for 24 hours. After removing the medium, opti-MEM (manufactured by Life Technologies Oriental) prepared to have the concentration of the luciferase-expressing plasmid prepared in Example 7 of 1 μg/mL and the concentration of the peptide prepared in Example 1 of 1.25, 2.5, or 5 μM was added, and the cells were cultivated for 5 hours. Next, in the case of Vero cell and A549 cell, the culture medium was replaced with DMEM supplemented with 10% FBS, and in the case of T24 cell, the medium was replaced with McCoy's 5a supplemented with 10% FBS, and cultivation was continued in 5% CO2 atmosphere and at 37° C. for another 24 hours. The luciferase activity expressed in the cell was then measured by the method instructed in luciferase assay system (manufactured by Promega). To be more specific, the cells were washed with phosphate-buffered saline (hereinafter referred to as PBS, manufactured by SIGMA), and the cells were lyzed with Passive Lysis Buffer attached to the kit.
20 μL of this cell lysate and 100 μL of the Luciferase Assay Reagent II attached to the kit was added to a fluorescence-measuring plate (Microlite™ 1 plate, manufactured by Dynatech), and after mixing, fluorescence was measured for 1 second by using a multilabel counter (ARVO™ SY1420 MULTILABEL COUNTER, manufactured by Wallac Beltold.
Concentration of the protein in the cell lysate was measured by mixing 8 μL of the cell lysate and 200 μL of the protein assay solution (manufactured by Biorad) with 792 μL of ultrapure water in a disposable cuvette (UV fluorescent cuvette A204X, manufactured by Funakoshi), allowing the mixture to stand for 5 minutes at room temperature, and measuring the absorption at 595 nm with a spectrophotometer (DU640, manufactured by Beckman). Bovine serum albumin (BSA) was used for the standard protein. By using the thus obtained results, count per 1 second per 1 mg of protein of the cell lysate was calculated to thereby use the count as the luciferase activity, and the highest count in the three conditions of different peptide concentration was designated the gene-introducing ability of the peptide.

[3] = Measurement of CD spectrum with and without SDS; format: physicochemical; details: 10 mM phosphate buffer pH 7, 50 mM NaCl, 35° C.
Method: The peptide dissolved in 10 mM phosphate buffer (pH=7) containing 50 mM NaCl was evaluated for its CD spectrum in the presence and in the absence of 5 mM SDS by using a circular dichroism spectrophotometer (J-500A, manufactured by JASCO). The cell length was 1 mm. The measurement was conducted at 35° C. for 6 times in total.

IC50 [1]: < 1 µM
Sequence: TRYLRIHPRSWVHQIALRLRYLRIHPRSWVHQIALRS [SEQ ID NO: 1]
Nucleic acid-introducing ability ([2]; luciferase plasmid 1 μg/mL, highest count of peptide 1.25, 2.5 or 5 μM, cell line not stated): 3+ (1,000,000 to less than 10,000,000)
Ability of introducing the nucleic acid into a cell ([2]; procedure of Example 9): found to have the ability of introducing the nucleic acid into a cell
α-helix structure in CD spectroscopy in the presence of SDS ([3]; 5 mM SDS): are in α-helix structure in the presence of SDS
α-helix structure in CD spectroscopy in the absence of SDS ([3]; no SDS): do not take α-helix structure in an aqueous solution solely containing an inorganic salt
